Results on 2 molecules are retold here after EP0353049A2, “NAD-independent alpha- glycerol-3-phosphate dehydrogenases, production and use therof in triglyceride and glycerol determinations” (Genzyme (U.K.) LTD., priority 1988, dated 1990).

One experiment has as its target enzyme from E. coli (Escherichia coli, UniProt P13035). Particulars: cited from earlier work.
The target of experiment [1] is T1, NAD-independent α-glycerol-3-phosphate dehydrogenase (Priestia megaterium, UniProt D5DYU7).
T1 sequence (D5DYU7 1-559): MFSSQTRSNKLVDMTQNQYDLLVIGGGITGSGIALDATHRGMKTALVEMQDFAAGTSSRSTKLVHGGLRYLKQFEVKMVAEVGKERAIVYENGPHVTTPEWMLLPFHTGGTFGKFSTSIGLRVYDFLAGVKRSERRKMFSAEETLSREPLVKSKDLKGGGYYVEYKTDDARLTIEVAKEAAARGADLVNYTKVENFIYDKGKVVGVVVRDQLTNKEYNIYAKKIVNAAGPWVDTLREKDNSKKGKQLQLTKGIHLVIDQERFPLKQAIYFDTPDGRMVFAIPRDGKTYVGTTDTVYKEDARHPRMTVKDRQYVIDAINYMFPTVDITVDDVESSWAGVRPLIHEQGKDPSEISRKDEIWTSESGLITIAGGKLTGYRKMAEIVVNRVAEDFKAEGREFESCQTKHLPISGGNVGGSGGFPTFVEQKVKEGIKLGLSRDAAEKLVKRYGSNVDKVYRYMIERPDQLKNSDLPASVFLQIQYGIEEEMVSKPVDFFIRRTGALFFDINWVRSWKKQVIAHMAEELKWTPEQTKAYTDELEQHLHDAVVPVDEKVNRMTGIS
Description: α-glycerol-3-phosphate dehydrogenase activity assay (rate of INT reduction, absorbance at 505nm, 37°C). It counts as biochemical, B. megaterium. Particulars: concentration of inhibitor bringing about 50% inhibition. The method, then:
Aliquots of the resulting cell-free extract and other samples containing partially purified α-glycerol-3-phosphate dehydrogenase were used in the following assay test system:
The rate of change of absorbance was measured at 505nm, 37°C in a spectrophotometer. According to such test, the specific activity of the purified enzyme (from gel filtration chromatography) was 1.0 unit/mg protein; a unit is number of µmoles of INT reduced per min.

Sequence of enzyme from E. coli (P13035 whole entry): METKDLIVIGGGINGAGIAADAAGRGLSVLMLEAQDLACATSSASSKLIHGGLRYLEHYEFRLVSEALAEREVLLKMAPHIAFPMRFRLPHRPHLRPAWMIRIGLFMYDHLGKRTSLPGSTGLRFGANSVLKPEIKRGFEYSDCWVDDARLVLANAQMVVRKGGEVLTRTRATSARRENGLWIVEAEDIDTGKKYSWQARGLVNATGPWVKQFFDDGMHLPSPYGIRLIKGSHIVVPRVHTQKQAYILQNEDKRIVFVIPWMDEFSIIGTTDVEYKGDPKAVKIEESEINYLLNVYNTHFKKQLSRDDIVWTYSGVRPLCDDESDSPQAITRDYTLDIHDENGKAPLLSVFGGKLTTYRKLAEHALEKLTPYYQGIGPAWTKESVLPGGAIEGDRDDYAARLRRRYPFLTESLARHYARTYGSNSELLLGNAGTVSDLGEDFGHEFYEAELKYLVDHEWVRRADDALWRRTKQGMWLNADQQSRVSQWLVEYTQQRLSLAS

Turning to `O=P(O)(O)OC[C@H](O)CO` [L-α-glycerol-3-phosphate], the Michaelis constant (Km) on enzyme from E. coli is 400 µM.

Regarding ammonium sulphate, the “50% inhibition of enzyme activity (concentration)” value in experiment [1] is recorded as 1%.

Usually Km stands for the concentration of substrate that gives half-maximal velocity.
